Reference: patent publication US20130158043A1, “PAK INHIBITORS FOR THE TREATMENT OF CANCER” (AFRAXIS, INC., priority 2011, published 2013)

Biological target: T1, p-PAK1(S144) (Rattus norvegicus, UniProt P35465)
T1 construct: endogenous in cells; host or cells: RT4-D6P2T
Assay: In vitro p-PAK1(S144) cellular HTRF assay
Format: cell-based
Settings: cell line RT4-D6P2T, read-out: pPAK1(S144) IC50
Description: Compounds for treatment of cancer are subject to in vitro cellular HTRF assay for p-PAK1(S144). The cell line is RT4-D6P2T. The HTRF assay kits are obtained from Cisbio Bioassays, 135 South Road, Bedford, Mass. 01730, USA.

T1 sequence (P35465 whole entry): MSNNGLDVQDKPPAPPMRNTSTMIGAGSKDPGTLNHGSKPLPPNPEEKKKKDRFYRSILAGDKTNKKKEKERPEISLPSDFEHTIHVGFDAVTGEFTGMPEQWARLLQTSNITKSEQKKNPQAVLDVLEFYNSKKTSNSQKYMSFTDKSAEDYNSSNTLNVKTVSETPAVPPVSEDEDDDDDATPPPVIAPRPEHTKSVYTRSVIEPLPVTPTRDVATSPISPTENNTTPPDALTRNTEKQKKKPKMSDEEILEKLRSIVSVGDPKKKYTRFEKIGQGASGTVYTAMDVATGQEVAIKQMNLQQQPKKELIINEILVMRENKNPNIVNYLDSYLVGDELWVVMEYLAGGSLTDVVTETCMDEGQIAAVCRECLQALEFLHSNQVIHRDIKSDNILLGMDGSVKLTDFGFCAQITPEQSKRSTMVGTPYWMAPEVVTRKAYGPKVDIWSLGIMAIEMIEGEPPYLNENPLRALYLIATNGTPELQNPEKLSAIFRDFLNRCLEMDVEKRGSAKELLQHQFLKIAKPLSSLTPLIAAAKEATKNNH

IC50	Compound
50 to 500 nM	CN1CCN(c2ccc(Nc3ncc4cc(-c5ccc(-c6cccnc6F)cc5Cl)c(=O)n(C)c4n3)cc2)CC1
50 to 500 nM	CCN1CCN(c2ccc(Nc3ncc4cc(-c5ccc(-c6cccnc6)cc5Cl)c(=O)n(CC)c4n3)cc2F)CC1 [drawing 756]
